Test results reported in ChEMBL document CHEMBL1150076, “Effects of various isoquinoline alkaloids on in vitro 3H-dopamine uptake by rat striatal synaptosomes” (J Nat Prod, 1995).

Molecular target: Sodium-dependent dopamine transporter (Rattus norvegicus, UniProt P23977)
Type: subcellular, Wistar, Brain, Synaptosomes

Sodium-dependent dopamine transporter, sequence (P23977 whole entry): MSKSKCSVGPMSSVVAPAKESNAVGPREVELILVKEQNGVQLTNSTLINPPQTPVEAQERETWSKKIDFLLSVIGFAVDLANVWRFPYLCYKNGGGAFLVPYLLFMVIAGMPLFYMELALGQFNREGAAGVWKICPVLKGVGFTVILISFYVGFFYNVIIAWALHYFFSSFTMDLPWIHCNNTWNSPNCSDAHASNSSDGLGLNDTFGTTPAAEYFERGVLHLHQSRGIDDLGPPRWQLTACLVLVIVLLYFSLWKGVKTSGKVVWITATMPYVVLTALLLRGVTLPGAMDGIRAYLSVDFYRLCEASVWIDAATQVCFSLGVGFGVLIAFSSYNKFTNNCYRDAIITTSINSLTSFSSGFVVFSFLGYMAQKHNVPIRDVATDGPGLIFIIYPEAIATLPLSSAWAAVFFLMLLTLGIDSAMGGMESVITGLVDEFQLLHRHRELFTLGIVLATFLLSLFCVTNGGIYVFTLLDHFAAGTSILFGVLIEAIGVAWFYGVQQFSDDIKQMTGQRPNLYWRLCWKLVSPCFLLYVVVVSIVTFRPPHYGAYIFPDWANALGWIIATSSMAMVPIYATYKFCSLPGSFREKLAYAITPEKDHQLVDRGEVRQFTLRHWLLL

Row | Structure (SMILES) | IC50 [µM]
1 | COc1cccc2c1-c1c3c(cc4c1[C@@H](C2)N(C)CC4)OCO3 | 31.8
2 | COc1ccc2c(c1)c(C)c1c3c(cc4c(c32)OCO4)CCN1C | 46.6
3 | COc1cc2c(cc1OC)[C@@H](Cc1ccc(Oc3cc(C[C@@H]4c5cc(OC)c(OC)cc5CCN4C)ccc3OC)cc1)N(C)CC2 | 5.8
4 | COc1c(O)c2c3c(c1OC)CCN(C)[C@@H]3Cc1ccccc1-2 | 46.4
5 | O=C(O)CCCCCCNC1c2ccccc2CCc2ccccc21 [AMINEPTINE] | 1
6 | Oc1ccc2c(c1)C[C@H]1NCCc3cc4c(c-2c31)OCO4 [ANOLOBINE] | 8.1
7 | c1ccc2c(c1)C[C@H]1NCCc3cc4c(c-2c31)OCO4 [ANONAINE] | 0.8
8 | COc1cc2c3cc1Oc1c(O)c(OC)cc4c1[C@H](Cc1ccc(OC)c(c1)-c1cc(ccc1O)C[C@H]3N(C)CC2)N(C)CC4 [ANTIOQUINE] | 3.4
9 | Cc1c2c3c(cc4c(c3c3ccc(O)cc13)OCO4)CCN2C [BELEMINE] | 61.4
10 | COc1cc2c(cc1O)C[C@H]1c3c(ccc(O)c3O2)CCN1C [BREOGANINE] | 56.5
11 | COc1cc2c(cc1O)Oc1c(O)ccc3c1[C@H](C2)N(C)CC3 [CELTISINE] | > 100
12 | COc1ccc2c(c1O)Oc1c(O)ccc3c1[C@H](C2)N(C)CC3 [CLAVICULINE] | > 100
13 | COc1cc2c(cc1OC)Oc1c(O)ccc3c1[C@H](C2)N(C)CC3 [CULARIDINE] | 41.2
14 | COc1cc2c(cc1OC)[C@@H](Cc1ccc(Oc3cc(C[C@H]4c5cc(OC)c(OC)cc5CCN4C)ccc3OC)cc1)N(C)CC2 [DIMETHYLGRISABINE] | 1.1
15 | COc1cc2c3cc1Oc1c(OC)c(OC)cc4c1[C@@H](C(=O)c1ccc(OC)c(c1)-c1cc(ccc1OC)C[C@H]3N(C)CC2)N(C)CC4 [DIMETHYLPSEUDOXANDRINE] | 20.1
16 | COc1cc2c3c(c(-c4c5c6c(cc7c(c6c6ccccc46)OCO7)CCN5)c4ccccc4c3c1OC)NCC2 [HETEROPSINE] | > 100
17 | COc1ccc2cc1Oc1ccc(cc1)C[C@H]1c3c(cc(OC)c(O)c3Oc3cc4c(cc3OC)CCN(C)[C@@H]4C2)CCN1C [HOMOAROMOLINE] | 10.9
18 | COc1cc(C[C@H]2c3c(ccc(OC)c3O)CCN2C)ccc1O [ISOCRASSIFOLINE] | 36.2
19 | COc1c(O)c2c3c(c1OC)CCN[C@@H]3Cc1ccccc1-2 [ISOPILINE] | 2.5

Row | Structure (SMILES) | IC50 [µM]
20 | COc1ccc2cc1Oc1ccc(cc1)C[C@@H]1c3cc(c(OC)cc3CCN1C)Oc1c(OC)c(OC)cc3c1[C@H](C2)N(C)CC3 [ISOTETRANDRINE] | 4.2
21 | COc1cc2c(cc1O)[C@H](Cc1ccc(O)cc1)NCC2 [L-COCLAURINE] | 14.1
22 | O=C1c2ccccc2-c2c3c(cc4ccnc1c24)OCO3 [LIRIODENINE] | 31.2
23 | COc1cc2ccnc3c2c(c1OC)-c1ccccc1C3=O [LYSICAMINE] | > 100
24 | COc1c(O)c2c3c(nccc3c1OC)C(C)(C)c1cc(O)ccc1-2 [MELOSMINE] | 23.6
25 | COc1cc2c(cc1OC)[C@H](Cc1ccc(O)cc1)NCC2 [NORARMEPAVINE] | 37
26 | COc1cc2c(cc1O)C[C@@H]1NCCc3cc(O)c(OC)c-2c31 [NORBOLDINE] | 16.5
27 | COc1c2c3c(c4c1OCO4)-c1ccccc1C[C@H]3NCC2 [NORSTEPHALAGINE] | 1.4
28 | COc1ccc2cc1Oc1ccc(cc1)C[C@H]1c3c(cc(OC)c(OC)c3Oc3cc4c(cc3OC)CCN(C)[C@@H]4C2)CCN1C [OBABERINE] | 3.9
29 | COc1cc2c(cc1OC)C(=O)c1nccc3ccc(OC)c(c13)O2 [OXOCULARINE] | > 100
30 | COc1ccc2c(c1OC)Oc1c(O)ccc3ccnc(c13)C2 [OXOSARCOPHYLLINE] | > 100
31 | COc1cc2c(cc1OC)[C@@H](Cc1ccc(OC)c(Oc3ccc(C[C@H]4NCCc5cc(OC)c(OC)cc54)cc3)c1)N(C)CC2 [PAMPULHAMINE] | 84.2
32 | COc1ccc2c(c1O)Oc1c(OC)ccc3c1[C@H](C2)N(C)CC3 [SARCOCAPNIDINE] | 85.5
33 | COc1cc2c3c(c1OC)-c1c(ccc(O)c1O)C[C@H]3N(C)CC2 [SAUVEOLINE] | > 100
34 | COc1cc2c(cc1Oc1c(O)c(OC)cc3c1[C@H](Cc1ccc(OC)c(-c4cc(C=O)ccc4O)c1)N(C)CC3)C(=O)N(C)CC2 [SECANTIOQUINE] | > 100
35 | COc1cc2c(cc1OC)Oc1c(O)ccc(CCN(C)C)c1C=C2 [SECOCULARIDINE] | 13.4
36 | COc1cc2c(cc1OC)Oc1c(OC)ccc(CCN(C)C)c1C=C2 [SECOCULARINE] | 28.2
37 | COc1ccc(C[C@H]2c3c(cc(OC)c4c3Oc3cc5c(cc3O4)CCN(C)C5=O)CCN2C)cc1-c1cc(C=O)ccc1O [SECOLUCIDINE] | > 100
